Reference: patent publication US10485235B2, “Aryloxypyrimidinyl ethers as herbicides” (FMC Corporation, priority 2015, dated 2019)

Experiments:
Assay type in all cases: in vivo
[1] = tested on: barnyardgrass (Echinochloa crus-galli); assay: Test A preemergence, barnyardgrass; settings: Echinochloa crus-galli, pre-emergence, 240 h, Preemergence, 0 to 100 scale (0 no effect, 100 complete control), read-out: Plant response rating, Barnyardgrass; for pest or weed control at 125 g/ha: 125 g ai/ha; for pest or weed control at 500 g/ha: 500 g ai/ha
Summary of the method: (§1)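 Visual injury rating versus untreated controls on a 0 to 100 scale (0 = no effect, 100 = complete control), taken about 10 days after treatment in the greenhouse. Preemergence: directed soil spray over seeded loam–sand. Postemergence: spray on one- to two-leaf plants, 2 to 10 cm tall.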

[2] = tested on: foxtail, giant (giant foxtail, Setaria faberii); assay: Test A postemergence, giant foxtail; settings: Setaria faberi, post-emergence, 240 h, postemergence, 0 to 100 scale, 0 is no effect, 100 is complete control, approximately 10 days, read-out: Plant response rating, Foxtail, Giant; for pest or weed control at 125 g/ha: 125 g ai/ha; for pest or weed control at 500 g/ha: 500 g ai/ha
Summary of the method: as §1

[3] = tested on: pigweed (Amaranthus retroflexus); assay: Test A postemergence, pigweed; settings: Amaranthus retroflexus, post-emergence, 240 h, postemergence, 0 to 100 scale, 0 is no effect, 100 is complete control, approximately 10 days, read-out: Plant response rating, Pigweed; for pest or weed control at 125 g/ha: 125 g ai/ha; for pest or weed control at 500 g/ha: 500 g ai/ha
Summary of the method: as §1

[4] = tested on: wheat (Triticum aestivum); assay: Test A postemergence, wheat; settings: Triticum aestivum, post-emergence, 240 h, postemergence, 0 to 100 scale, 0 is no effect, 100 is complete control, approximately 10 days, read-out: Plant response rating, Wheat; for plant injury at 125 g/ha: 125 g ai/ha; for plant injury at 500 g/ha: 500 g ai/ha
Summary of the method: as §1

kochia (Kochia scoparia) [5] = assay: Test A postemergence, kochia; settings: Bassia scoparia, post-emergence, 240 h, postemergence, 0 to 100 scale, 0 is no effect, 100 is complete control, approximately 10 days, read-out: Plant response rating, Kochia; for pest or weed control at 125 g/ha: 125 g ai/ha; for pest or weed control at 500 g/ha: 500 g ai/ha
Summary of the method: as §1

[6] = tested on: pigweed (Amaranthus retroflexus); assay: Test A preemergence, pigweed; settings: Amaranthus retroflexus, pre-emergence, 240 h, Preemergence, 0 to 100 scale (0 no effect, 100 complete control), read-out: Plant response rating, Pigweed; for pest or weed control at 125 g/ha: 125 g ai/ha; for pest or weed control at 500 g/ha: 500 g ai/ha
Summary of the method: as §1

[7] = tested on: sedge, umbrella (small-flower umbrella sedge, Cyperus difformis); assay: Test B flooded paddy test, umbrella sedge; settings: Cyperus difformis; 250 g ai/ha, Flood; visual rating after 13 to 15 days; scale 0 to 100, 0 is no effect, 100 is complete control; read-out: Plant response rating, Sedge, Umbrella
Summary of the method: (§2)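 Visual injury scored 0 (no effect) to 100 (complete control) relative to controls 13-15 days after treatment in greenhouse. Treatment: test compound added into paddy water of pots flooded 3 cm over soil, holding 2-leaf-stage plants; water level kept constant.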

rice (Oryza sativa) = assay: Test B flooded paddy test, rice; settings: Oryza sativa; 250 g ai/ha, Flood; visual rating after 13 to 15 days; scale 0 to 100, 0 is no effect, 100 is complete control; read-out: Plant response rating, Rice
Summary of the method: as §2

[8] = tested on: barnyardgrass (Echinochloa crus-galli); assay: Test B flooded paddy test, barnyardgrass; settings: Echinochloa crus-galli; 250 g ai/ha, Flood; visual rating after 13 to 15 days; scale 0 to 100, 0 is no effect, 100 is complete control; read-out: Plant response rating, Barnyardgrass
Summary of the method: as §2

[9] = tested on: ducksalad (Heteranthera limosa); assay: Test B flooded paddy test, ducksalad; settings: Heteranthera limosa; 250 g ai/ha, Flood; visual rating after 13 to 15 days; scale 0 to 100, 0 is no effect, 100 is complete control; read-out: Plant response rating, Ducksalad
Summary of the method: as §2

kochia (Kochia scoparia) [10] = assay: Test A preemergence, kochia; settings: Bassia scoparia, pre-emergence, 240 h, Preemergence, 0 to 100 scale (0 no effect, 100 complete control), read-out: Plant response rating, Kochia; for pest or weed control at 125 g/ha: 125 g ai/ha; for pest or weed control at 500 g/ha: 500 g ai/ha
Summary of the method: as §1

corn (Zea mays) = assay: Test A postemergence, corn; settings: Zea mays, post-emergence, 240 h, postemergence, 0 to 100 scale, 0 is no effect, 100 is complete control, approximately 10 days; for Corn plant response rating (crop injury, 0 = no effect, 100 = complete kill) at 125 g/ha: 125 g ai/ha; for Corn plant response rating (crop injury, 0 = no effect, 100 = complete kill) at 500 g/ha: 500 g ai/ha
Summary of the method: as §1

[11] = tested on: ryegrass, Italian (Italian ryegrass, Lolium multiflorum); assay: Test A preemergence, Italian ryegrass; settings: Lolium multiflorum, pre-emergence, 240 h, Preemergence, 0 to 100 scale (0 no effect, 100 complete control), read-out: Plant response rating, Ryegrass, Italian; for pest or weed control at 125 g/ha: 125 g ai/ha; for pest or weed control at 500 g/ha: 500 g ai/ha
Summary of the method: as §1

[12] = tested on: foxtail, giant (giant foxtail, Setaria faberii); assay: Test A preemergence, giant foxtail; settings: Setaria faberi, pre-emergence, 240 h, Preemergence, 0 to 100 scale (0 no effect, 100 complete control), read-out: Plant response rating, Foxtail, Giant; for pest or weed control at 125 g/ha: 125 g ai/ha; for pest or weed control at 500 g/ha: 500 g ai/ha
Summary of the method: as §1

[13] = tested on: galium (catchweed bedstraw, Galium aparine); assay: Test A postemergence, galium; settings: Galium, post-emergence, 240 h, postemergence, 0 to 100 scale, 0 is no effect, 100 is complete control, approximately 10 days, read-out: Plant response rating, Galium; for pest or weed control at 125 g/ha: 125 g ai/ha; for pest or weed control at 500 g/ha: 500 g ai/ha
Summary of the method: as §1

Row | SMILES | pest or weed control at 125 g/ha [1] [%] | pest or weed control at 500 g/ha [1] [%] | pest or weed control at 125 g/ha [2] [%] | pest or weed control at 500 g/ha [2] [%] | pest or weed control at 125 g/ha [3] [%] | pest or weed control at 500 g/ha [3] [%] | plant injury at 125 g/ha [4] [%] | plant injury at 500 g/ha [4] [%] | pest or weed control at 125 g/ha (kochia (Kochia scoparia) [5]) [%] | pest or weed control at 500 g/ha (kochia (Kochia scoparia) [5]) [%] | pest or weed control at 125 g/ha [6] [%] | pest or weed control at 500 g/ha [6] [%] | pest or weed control at 250 g/ha [7] [%] | plant injury at 250 g/ha (rice (Oryza sativa)) [%] | pest or weed control at 250 g/ha [8] [%] | pest or weed control at 250 g/ha [9] [%] | pest or weed control at 125 g/ha (kochia (Kochia scoparia) [10]) [%] | pest or weed control at 500 g/ha (kochia (Kochia scoparia) [10]) [%] | Corn plant response rating (crop injury, 0 = no effect, 100 = complete kill) at 125 g/ha (corn (Zea mays)) [%] | Corn plant response rating (crop injury, 0 = no effect, 100 = complete kill) at 500 g/ha (corn (Zea mays)) [%] | also measured
1 | N#Cc1cccc(Oc2ncc(Cl)cn2)c1OCC(F)(F)C(F)(F)F [Compound 10, 3-[(5-chloro-2-pyrimidinyl)oxy]-2-(2,2,3,3,3-pentafluoropropoxy)benzonitrile] | 100 | 100 | 100 | 100 | 100 | 100 | 30 | 90 | 100 | 100 | 100 | 100 | 85 | 20 | 50 | 70 | 100 | 100 | 70 | 100 | pest or weed control at 125 g/ha [11]: 40%; pest or weed control at 500 g/ha [11]: 100%; pest or weed control at 125 g/ha [12]: 100%; pest or weed control at 500 g/ha [12]: 100%; pest or weed control at 125 g/ha [13]: 90%; pest or weed control at 500 g/ha [13]: 100%
2 | CCCCOc1c(Br)cccc1Oc1ncc(Cl)cn1 [Compound 13, 2-[3-bromo-2-(butoxy)phenoxy]-5-chloropyrimidine] | 100 | 100 | 90 | 100 | 100 | 100 | 20 | 40 | 100 | 100 | 100 | 100 | 95 | 20 | 0 | 50 | 80 | 100 | 30 | 90 | pest or weed control at 125 g/ha [11]: 10%; pest or weed control at 500 g/ha [11]: 90%; pest or weed control at 125 g/ha [12]: 100%; pest or weed control at 500 g/ha [12]: 100%; pest or weed control at 125 g/ha [13]: 90%; pest or weed control at 500 g/ha [13]: 100%
3 | FC(F)C(F)(F)COc1c(Br)cccc1Oc1ncc(Cl)cn1 [Compound 18, 2-[3-bromo-2-(2,2,3,3-tetrafluoropropoxy)phenoxy]-5-chloropyrimidine] | 100 | 100 | 40 | 100 | 100 | 100 | 0 | 20 | 100 | 100 | 100 | 100 | 0 | 0 | 0 | 30 | 30 | 100 | 20 | 30 | pest or weed control at 125 g/ha [11]: 10%; pest or weed control at 500 g/ha [11]: 100%; pest or weed control at 125 g/ha [12]: 100%; pest or weed control at 500 g/ha [12]: 100%; pest or weed control at 125 g/ha [13]: 80%; pest or weed control at 500 g/ha [13]: 100%
